Experimental data from patent publication US20090226527A1, “Particulate-stabilized injectable pharmacutical compositions of posaconazole” (priority 2004, published 2009).
≈ marks a conversion by molar mass, not a printed value.

Test system: infectious agents (strains tested)
Assay: organism not typed
Type: cell-based

C[C@@H](c1ncncc1F)[C@](O)(Cn1cncn1)c1ccc(F)cc1F [Voriconazole]
MIC (Absidia spp, read-out: Geometric Mean MIC): 40.3 µg/mL (≈ 115 µM)
MIC (Absidia spp, read-out: MIC[90]): 8 to 128 µg/mL (≈ 22.9 to 366 µM)
MIC (Apophysomyces spp, read-out: Geometric Mean MIC): 42.2 µg/mL (≈ 121 µM)
MIC (Apophysomyces spp, read-out: MIC[90]): 16 to 128 µg/mL (≈ 45.8 to 366 µM)
MIC (Aspergillus flavus, read-out: Geometric Mean MIC): 0.339 µg/mL (≈ 0.97 µM)
MIC (Aspergillus flavus, read-out: MIC[90]): 1 µg/mL (≈ 2.86 µM)
MIC (Aspergillus fumigatus, read-out: Geometric Mean MIC): 0.282 µg/mL (≈ 0.807 µM)
MIC (Aspergillus fumigatus, read-out: MIC[90]): 0.5 µg/mL (≈ 1.43 µM)
MIC (Aspergillus nidulans, read-out: Geometric Mean MIC): 0.07 µg/mL (≈ 0.2 µM)
MIC (Aspergillus nidulans, read-out: MIC[90]): 0.031 to 0.125 µg/mL (≈ 0.0887 to 0.358 µM)
MIC (Aspergillus niger, read-out: Geometric Mean MIC): 0.48 µg/mL (≈ 1.37 µM)
MIC (Aspergillus niger, read-out: MIC[90]): 2 µg/mL (≈ 5.73 µM)
MIC (Aspergillus sydowii, read-out: Geometric Mean MIC): 0.397 µg/mL (≈ 1.14 µM)
MIC (Aspergillus sydowii, read-out: MIC[90]): 0.25 to 1 µg/mL (≈ 0.716 to 2.86 µM)
MIC (Aspergillus terreus, read-out: Geometric Mean MIC): 0.312 µg/mL (≈ 0.893 µM)
MIC (Aspergillus terreus, read-out: MIC[90]): 0.5 µg/mL (≈ 1.43 µM)
MIC (Aspergillus ustus, read-out: Geometric Mean MIC): 1.19 µg/mL (≈ 3.4 µM)
MIC (Aspergillus ustus, read-out: MIC[90]): 0.25 to 2 µg/mL (≈ 0.716 to 5.73 µM)
MIC (Bipolaris spp, read-out: Geometric Mean MIC): 1 µg/mL (≈ 2.86 µM)
MIC (Bipolaris spp, read-out: MIC[90]): 1 µg/mL (≈ 2.86 µM)
MIC (Bjerkandera adusta, read-out: Geometric Mean MIC): 0.216 µg/mL (≈ 0.618 µM)
MIC (Bjerkandera adusta, read-out: MIC[90]): 0.25 µg/mL (≈ 0.716 µM)
MIC (Candida albicans, read-out: Geometric Mean MIC): 0.021 µg/mL (≈ 0.0601 µM)
MIC (Candida albicans, read-out: MIC[90]): 0.063 µg/mL (≈ 0.18 µM)
MIC (Candida dubliniensis, read-out: Geometric Mean MIC): 0.028 µg/mL (≈ 0.0802 µM)
MIC (Candida dubliniensis, read-out: MIC[90]): 0.125 µg/mL (≈ 0.358 µM)
MIC (Candida tropicalis, read-out: Geometric Mean MIC): 0.075 µg/mL (≈ 0.215 µM)
MIC (Candida tropicalis, read-out: MIC[90]): 0.5 µg/mL (≈ 1.43 µM)
MIC (Clavispora lusitaniae, Candida lusitaniae, read-out: Geometric Mean MIC): 0.023 µg/mL (≈ 0.0658 µM)
MIC (Clavispora lusitaniae, Candida lusitaniae, read-out: MIC[90]): 0.063 µg/mL (≈ 0.18 µM)
MIC (Cryptococcus neoformans, read-out: Geometric Mean MIC): 0.054 µg/mL (≈ 0.155 µM)
MIC (Cryptococcus neoformans, read-out: MIC[90]): 0.125 µg/mL (≈ 0.358 µM)
MIC (Curvularia spp, read-out: Geometric Mean MIC): 0.125 µg/mL (≈ 0.358 µM)
MIC (Curvularia spp, read-out: MIC[90]): 0.125 µg/mL (≈ 0.358 µM)
MIC (Debaryomyces hansenii, Candida famata, read-out: Geometric Mean MIC): 0.072 µg/mL (≈ 0.206 µM)
MIC (Debaryomyces hansenii, Candida famata, read-out: MIC[90]): 0.008 to 0.5 µg/mL (≈ 0.0229 to 1.43 µM)
MIC (Diutina rugosa, Candida rugosa, read-out: Geometric Mean MIC): 0.072 µg/mL (≈ 0.206 µM)
MIC (Diutina rugosa, Candida rugosa, read-out: MIC[90]): 0.5 µg/mL (≈ 1.43 µM)
MIC (Dujonia zeylanoides, Candida zeylanoides, read-out: Geometric Mean MIC): 0.039 µg/mL (≈ 0.112 µM)
MIC (Dujonia zeylanoides, Candida zeylanoides, read-out: MIC[90]): 0.008 to 0.125 µg/mL (≈ 0.0229 to 0.358 µM)
MIC (Epidermophyton floccosum, read-out: Geometric Mean MIC): 0.015 µg/mL (≈ 0.0429 µM)
MIC (Epidermophyton floccosum, read-out: MIC[90]): 0.016 µg/mL (≈ 0.0458 µM)
MIC (Exophiala dermatidis, read-out: Geometric Mean MIC): 0.063 µg/mL (≈ 0.18 µM)
MIC (Exophiala dermatidis, read-out: MIC[90]): 0.063 µg/mL (≈ 0.18 µM)
MIC (Exophiala dermatitidis, Wangiella dermatitidis, read-out: Geometric Mean MIC): 1 µg/mL (≈ 2.86 µM)
MIC (Exophiala dermatitidis, Wangiella dermatitidis, read-out: MIC[90]): 1 µg/mL (≈ 2.86 µM)
MIC (Exophiala jeanselmei, read-out: Geometric Mean MIC): 0.794 µg/mL (≈ 2.27 µM)
MIC (Exophiala jeanselmei, read-out: MIC[90]): 0.5 to 1 µg/mL (≈ 1.43 to 2.86 µM)
MIC (Fonsecae pedrosoi, read-out: Geometric Mean MIC): 0.5 µg/mL (≈ 1.43 µM)
MIC (Fonsecae pedrosoi, read-out: MIC[90]): 0.5 µg/mL (≈ 1.43 µM)
MIC (Fusarium spp, read-out: Geometric Mean MIC): 4.42 µg/mL (≈ 12.6 µM)
MIC (Fusarium spp, read-out: MIC[90]): 16 µg/mL (≈ 45.8 µM)
MIC (Kluyveromyces marxianus, Candida kefyr, read-out: Geometric Mean MIC): 0.031 µg/mL (≈ 0.0887 µM)
MIC (Kluyveromyces marxianus, Candida kefyr, read-out: MIC[90]): 0.031 µg/mL (≈ 0.0887 µM)
MIC (Lodderomyces parapsilosis, Candida parapsilosis, read-out: Geometric Mean MIC): 0.036 µg/mL (≈ 0.103 µM)
MIC (Lodderomyces parapsilosis, Candida parapsilosis, read-out: MIC[90]): 0.125 µg/mL (≈ 0.358 µM)
MIC (Meyerozyma guilliermondii, Candida guilliermondii, read-out: Geometric Mean MIC): 0.112 µg/mL (≈ 0.321 µM)
MIC (Meyerozyma guilliermondii, Candida guilliermondii, read-out: MIC[90]): 8 µg/mL (≈ 22.9 µM)
MIC (Microsporum canis, read-out: Geometric Mean MIC): 0.018 µg/mL (≈ 0.0515 µM)
MIC (Microsporum canis, read-out: MIC[90]): 0.031 µg/mL (≈ 0.0887 µM)
MIC (Mucor spp, read-out: Geometric Mean MIC): 24.7 µg/mL (≈ 70.6 µM)
MIC (Mucor spp, read-out: MIC[90]): 1 to 128 µg/mL (≈ 2.86 to 366 µM)
MIC (Nakaseomyces glabratus, Candida glabrata, read-out: Geometric Mean MIC): 0.305 µg/mL (≈ 0.873 µM)
MIC (Nakaseomyces glabratus, Candida glabrata, read-out: MIC[90]): 2 µg/mL (≈ 5.73 µM)
MIC (Paecilomyces spp, read-out: Geometric Mean MIC): 0.324 µg/mL (≈ 0.928 µM)
MIC (Paecilomyces spp, read-out: MIC[90]): 0.031 to 2 µg/mL (≈ 0.0887 to 5.73 µM)
MIC (Papiliotrema laurentii, Cryptococcus laurentii, read-out: Geometric Mean MIC): 0.25 µg/mL (≈ 0.716 µM)
MIC (Papiliotrema laurentii, Cryptococcus laurentii, read-out: MIC[90]): 0.25 µg/mL (≈ 0.716 µM)
MIC (Penicillium spp, read-out: Geometric Mean MIC): 0.622 µg/mL (≈ 1.78 µM)
MIC (Penicillium spp, read-out: MIC[90]): 2 µg/mL (≈ 5.73 µM)
MIC (Pichia kudriavzevii, Candida krusei, read-out: Geometric Mean MIC): 0.346 µg/mL (≈ 0.991 µM)
MIC (Pichia kudriavzevii, Candida krusei, read-out: MIC[90]): 0.5 µg/mL (≈ 1.43 µM)
MIC (Rhizomucor spp, read-out: Geometric Mean MIC): 2 µg/mL (≈ 5.73 µM)
MIC (Rhizomucor spp, read-out: MIC[90]): 2 µg/mL (≈ 5.73 µM)
MIC (Rhizopus spp, read-out: Geometric Mean MIC): 8 µg/mL (≈ 22.9 µM)
MIC (Rhizopus spp, read-out: MIC[90]): 1 to 32 µg/mL (≈ 2.86 to 91.6 µM)
MIC (Saccharomyces cerevisiae, read-out: Geometric Mean MIC): 0.05 µg/mL (≈ 0.143 µM)
MIC (Saccharomyces cerevisiae, read-out: MIC[90]): 0.125 µg/mL (≈ 0.358 µM)
MIC (Scedosporium apiospermum, read-out: Geometric Mean MIC): 0.098 µg/mL (≈ 0.281 µM)
MIC (Scedosporium apiospermum, read-out: MIC[90]): 0.5 µg/mL (≈ 1.43 µM)
MIC (Scedosporium boydii, Pseudallescheria boydii, read-out: Geometric Mean MIC): 0.25 µg/mL (≈ 0.716 µM)
MIC (Scedosporium boydii, Pseudallescheria boydii, read-out: MIC[90]): 0.125 to 0.5 µg/mL (≈ 0.358 to 1.43 µM)
MIC (Trichophyton mentagrophytes, read-out: Geometric Mean MIC): 0.038 µg/mL (≈ 0.109 µM)
MIC (Trichophyton mentagrophytes, read-out: MIC[90]): 0.25 µg/mL (≈ 0.716 µM)
MIC (Trichophyton rubrum, read-out: Geometric Mean MIC): 0.021 µg/mL (≈ 0.0601 µM)
MIC (Trichophyton rubrum, read-out: MIC[90]): 0.063 µg/mL (≈ 0.18 µM)
MIC (Trichophyton tonsurans, read-out: Geometric Mean MIC): 0.043 µg/mL (≈ 0.123 µM)
MIC (Trichophyton tonsurans, read-out: MIC[90]): 0.063 µg/mL (≈ 0.18 µM)
MIC (Trichosporon spp, read-out: Geometric Mean MIC): 0.125 µg/mL (≈ 0.358 µM)
MIC (Trichosporon spp, read-out: MIC[90]): 0.125 µg/mL (≈ 0.358 µM)
